Laboratory results reported in patent US8895568B2, “Compositions comprising substituted pteridines as agrochemicals” (Dow AgroSciences LLC, priority 2009, dated 2014).
Read-outs that look alike come from different tables or passages of the source.

How the values were obtained:
Format in all cases: in vivo
Cochliobolus sativus = test: Spot Blotch of Wheat (COCHSA), foliar spray, percent disease control
[1] = test system: Pseudoperonospora cubensis; test: Cucumber Downy Mildew (PSPECU), foliar spray, percent disease control; details: foliar, read-out: PSPECU percent control
[2] = test system: DROSME, AEDSAE, LAPHEG, or HELIVI; test: Insecticidal activity, active if any of DROSME, AEDSAE, LAPHEG or HELIVI was controlled at 80% or more; details: read-out: >80% mortality on any insect species @ 4000 ppm
Colletotricum lagenarium = test: Cucumber Anthracnose (COLLLA), foliar spray, percent disease control; details: foliar
[3] = Bipolaris sorokiniana, foliar, read-out: COCHSA percent control
[4] = Bipolaris sorokiniana, foliar; read-out: COCHSA percent control

For FC(F)(F)c1cccc(-c2ccc(CCNc3ncnc4nccnc34)cc2)c1 [Compound 122], the pest or weed control at 200 µg/mL (Cochliobolus sativus; [3]) was 0 to 49%, the pest or weed control at 200 µg/mL [1] was 50 to 79% and the pest or weed control at 4000 ppm [2] was > 80%. The pest or weed control at 200 µg/mL (Colletotricum lagenarium) was 0 to 49%.

In the case of c1ccc(-c2ccc(CCNc3ncnc4nccnc34)cc2)cc1 [Compound 125], the pest or weed control at 200 µg/mL (Cochliobolus sativus; [3]) is reported as 0 to 49%, the pest or weed control at 200 µg/mL [1] is reported as 80 to 100% and the pest or weed control at 4000 ppm [2] is reported as > 80%. For the same compound, the pest or weed control at 200 µg/mL (Colletotricum lagenarium) was 50 to 79%.

With FC(F)(F)c1ccc(Oc2ccc(CCNc3ncnc4nccnc34)cn2)cc1 [Compound 126] the pest or weed control at 200 µg/mL (Cochliobolus sativus; [4]) was 0 to 49%, the pest or weed control at 200 µg/mL [1] was 80 to 100% and the pest or weed control at 4000 ppm [2] was > 80%. It also gave a pest or weed control at 200 µg/mL (Colletotricum lagenarium) of 80 to 100%.

FC(F)(F)c1nc(Oc2ccc(CCNc3ncnc4nccnc34)cc2)sc1Cl [Compound 128] was tested, and the pest or weed control at 200 µg/mL (Cochliobolus sativus; [4]) was 0 to 49%, the pest or weed control at 200 µg/mL [1] was 80 to 100% and the pest or weed control at 4000 ppm [2] was > 80%. It also gave a pest or weed control at 200 µg/mL (Colletotricum lagenarium) of 0 to 49%.

For Cc1cc(Oc2cc(C(F)(F)F)ccn2)ccc1CCNc1ncnc2nccnc12 [Compound 129], the pest or weed control at 200 µg/mL (Cochliobolus sativus; [4]) was 50 to 79%, the pest or weed control at 200 µg/mL [1] was 80 to 100% and the pest or weed control at 4000 ppm [2] was > 80%. For the same compound, the pest or weed control at 200 µg/mL (Colletotricum lagenarium) was 50 to 79%.

With COc1cc(CCNc2ncnc3nccnc23)ccc1Oc1ncc(C(F)(F)F)cc1F [Compound 130] the pest or weed control at 200 µg/mL (Cochliobolus sativus; [4]) was 0 to 49%, the pest or weed control at 200 µg/mL [1] was 80 to 100% and the pest or weed control at 4000 ppm [2] was > 80%. It also gave a pest or weed control at 200 µg/mL (Colletotricum lagenarium) of 0 to 49%.

In the case of COc1ccc(CCNc2ncnc3nc(C)c(C)nc23)cc1 [Compound 131], the pest or weed control at 200 µg/mL (Cochliobolus sativus; [4]) is reported as 0 to 49%, the pest or weed control at 200 µg/mL [1] is reported as 80 to 100% and the pest or weed control at 4000 ppm [2] is reported as > 80%. It also gave a pest or weed control at 200 µg/mL (Colletotricum lagenarium) of 0 to 49%.

For CC(C)c1ccc(Oc2ccc(CCNc3ncnc4nccnc34)cc2)cc1 [Compound 132, {2-[4-(4-Isopropylphenoxy)-phenyl]-ethyl}-pteridin-4-yl-amine], the pest or weed control at 200 µg/mL (Cochliobolus sativus; [4]) was 0 to 49%, the pest or weed control at 200 µg/mL [1] was 80 to 100% and the pest or weed control at 4000 ppm [2] was > 80%. The pest or weed control at 200 µg/mL (Colletotricum lagenarium) was 0 to 49%.

For Cc1ccc(Oc2ccc(CCNc3ncnc4nccnc34)cc2)cc1 [Compound 136], the pest or weed control at 200 µg/mL (Cochliobolus sativus; [4]) was 0 to 49%, the pest or weed control at 200 µg/mL [1] was 80 to 100% and the pest or weed control at 4000 ppm [2] was > 80%. It also gave a pest or weed control at 200 µg/mL (Colletotricum lagenarium) of 50 to 79%.

For CCOC(=O)c1ccc(Oc2ccc(CCNc3ncnc4nccnc34)cc2)nc1 [Compound 137], the pest or weed control at 200 µg/mL (Cochliobolus sativus; [4]) was 0 to 49%, the pest or weed control at 200 µg/mL [1] was 0 to 49% and the pest or weed control at 4000 ppm [2] was > 80%. It also gave a pest or weed control at 200 µg/mL (Colletotricum lagenarium) of 0 to 49%.

For Fc1nc(Oc2ccc(CCNc3ncnc4nccnc34)cc2)c(F)c(C(F)(F)F)c1F [Compound 138, Pteridin-4-yl-{2-[4-(3,5,6-trifluoro-4-trifluoromethyl-pyridin-2-yloxy)-phenyl]-ethyl}-amine], the pest or weed control at 200 µg/mL (Cochliobolus sativus; [4]) was 0 to 49%, the pest or weed control at 200 µg/mL [1] was 80 to 100% and the pest or weed control at 4000 ppm [2] was > 80%. For the same compound, the pest or weed control at 200 µg/mL (Colletotricum lagenarium) was 80 to 100%.

With c1ccc(COc2ccc(CCOc3ccc(CCNc4ncnc5nccnc45)cc3)cc2)cc1 [Compound 140, (2-{4-[2-(4-Benzyloxy-phenyl)-ethoxy]-phenyl}-ethyl)-pteridin-4-yl-amine] the pest or weed control at 200 µg/mL (Cochliobolus sativus; [4]) was 0 to 49%, the pest or weed control at 200 µg/mL [1] was 80 to 100% and the pest or weed control at 4000 ppm [2] was > 80%. It also gave a pest or weed control at 200 µg/mL (Colletotricum lagenarium) of 50 to 79%.

With Cc1cc(CCNc2ncnc3nccnc23)ccc1Oc1ccc(C(F)(F)F)cn1 [Compound 141] the pest or weed control at 200 µg/mL (Cochliobolus sativus; [4]) was 0 to 49%, the pest or weed control at 200 µg/mL [1] was 80 to 100% and the pest or weed control at 4000 ppm [2] was > 80%. It also gave a pest or weed control at 200 µg/mL (Colletotricum lagenarium) of 50 to 79%.

With Cc1cc(CCNc2ncnc3nccnc23)ccc1Oc1cncc(Cl)c1C#N [Compound 142] the pest or weed control at 200 µg/mL (Cochliobolus sativus; [4]) was 0 to 49%, the pest or weed control at 200 µg/mL [1] was 80 to 100% and the pest or weed control at 4000 ppm [2] was > 80%. The pest or weed control at 200 µg/mL (Colletotricum lagenarium) was 0 to 49%.

Cc1cc(CCNc2ncnc3nccnc23)ccc1Oc1ncc(C(F)(F)F)cc1F [Compound 143] was tested, and the pest or weed control at 200 µg/mL (Cochliobolus sativus; [4]) was 0 to 49%, the pest or weed control at 200 µg/mL [1] was 80 to 100% and the pest or weed control at 4000 ppm [2] was > 80%. For the same compound, the pest or weed control at 200 µg/mL (Colletotricum lagenarium) was 0 to 49%.

Cc1c(CCNc2ncnc3nccnc23)ccc(Oc2ccc(C(F)(F)F)cn2)c1C [Compound 144] was tested, and the pest or weed control at 200 µg/mL (Cochliobolus sativus; [4]) was 0 to 49%, the pest or weed control at 200 µg/mL [1] was 80 to 100% and the pest or weed control at 4000 ppm [2] was > 80%. It also gave a pest or weed control at 200 µg/mL (Colletotricum lagenarium) of 0 to 49%.

With Cc1c(CCNc2ncnc3nccnc23)ccc(Oc2cc(C(F)(F)F)ccn2)c1C [Compound 145] the pest or weed control at 200 µg/mL (Cochliobolus sativus; [4]) was 0 to 49%, the pest or weed control at 200 µg/mL [1] was 80 to 100% and the pest or weed control at 4000 ppm [2] was > 80%. The pest or weed control at 200 µg/mL (Colletotricum lagenarium) was 50 to 79%.

In the case of CCc1ncnc(Oc2ccc(CCNc3ncnc4nccnc34)cc2)c1Cl [Compound 146], the pest or weed control at 200 µg/mL (Cochliobolus sativus; [4]) is reported as 0 to 49%, the pest or weed control at 200 µg/mL [1] is reported as 80 to 100% and the pest or weed control at 4000 ppm [2] is reported as > 80%. The pest or weed control at 200 µg/mL (Colletotricum lagenarium) was 50 to 79%.

In the case of Cc1c(CCNc2ncnc3nccnc23)ccc(Oc2ncc(C(F)(F)F)cc2F)c1C [Compound 148], the pest or weed control at 200 µg/mL (Cochliobolus sativus; [4]) is reported as 0 to 49%, the pest or weed control at 200 µg/mL [1] is reported as 80 to 100% and the pest or weed control at 4000 ppm [2] is reported as > 80%. The pest or weed control at 200 µg/mL (Colletotricum lagenarium) was 0 to 49%.
